Our source for the IC50 values is patent US20100003246A1, “Novel heterocyclic compounds and uses therof” (priority 2008, published 2010).

For this test, the target named is T1, b-Raf(V600E) (Homo sapiens, UniProt P15056, V600E).
T1 construct: made in house
T1 sequence (P15056 whole entry V600E): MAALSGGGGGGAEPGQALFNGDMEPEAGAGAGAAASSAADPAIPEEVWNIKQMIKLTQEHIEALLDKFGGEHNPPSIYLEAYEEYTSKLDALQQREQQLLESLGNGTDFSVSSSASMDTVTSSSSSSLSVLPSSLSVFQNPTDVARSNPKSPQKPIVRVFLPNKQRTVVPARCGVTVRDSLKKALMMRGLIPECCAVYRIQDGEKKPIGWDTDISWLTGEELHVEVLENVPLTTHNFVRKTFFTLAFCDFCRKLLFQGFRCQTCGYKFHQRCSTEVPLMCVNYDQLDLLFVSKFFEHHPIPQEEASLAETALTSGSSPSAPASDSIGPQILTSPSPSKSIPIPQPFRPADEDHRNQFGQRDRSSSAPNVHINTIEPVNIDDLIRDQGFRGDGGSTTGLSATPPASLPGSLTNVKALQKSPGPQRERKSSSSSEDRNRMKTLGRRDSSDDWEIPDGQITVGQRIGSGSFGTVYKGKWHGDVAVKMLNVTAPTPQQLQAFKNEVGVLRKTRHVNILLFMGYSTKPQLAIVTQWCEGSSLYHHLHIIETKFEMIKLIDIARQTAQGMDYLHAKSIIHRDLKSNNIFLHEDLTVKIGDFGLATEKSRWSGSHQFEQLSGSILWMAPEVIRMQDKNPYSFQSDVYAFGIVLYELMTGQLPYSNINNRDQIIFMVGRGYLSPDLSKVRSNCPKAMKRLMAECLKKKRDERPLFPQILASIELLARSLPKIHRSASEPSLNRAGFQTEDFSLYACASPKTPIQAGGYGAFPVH
As to the kind of experiment: Raf/Mek Amplified Luminescence Proximity Homogeneous Assay (Alpha Screen), b-Raf(V600E). Type of test: biochemical. As to conditions: mutant b-Raf(V600E), read-out: mut-b-RAF (IC50 in uM). Summed up:
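IC50 derived by non-linear regression from AlphaScreen luminescence of phospho-MEK (anti-p-MEK antibody). Reaction: ~4 pM b-Raf(V600E), ~10 nM kinase-dead biotinylated Mek, 60 min compound pre-incubation, then 3 h with ATP at room temperature in pH 7.5 Tris/MgCl2/DTT buffer, quenched with EDTA.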
One may read the IC50 as the concentration needed to halve the response being measured. Consider `COc1cc(-c2[nH]c(-c3ccc(F)cc3)nc2-c2ccnc3[nH]ccc23)cnc1N` [Compound 129, 5-(2-(4-fluorophenyl)-4-(1H-pyrrolo[2,3-b]pyridin-4-yl)-1H-imidazol-5-yl)-3-methoxypyridin-2-amine], for which the IC50 was 0.0088 µM. The value for `Fc1ccc(-c2nc(-c3ccncc3)c(-c3ccc4ncnn4c3)[nH]2)cc1` [Compound 130, 6-(2-(4-fluorophenyl)-4-(pyridin-4-yl)-1H-imidazol-5-yl)-[1,2,4]triazolo[1,5-a]pyridine] was 0.416 µM.

With `Nc1ncc(-c2[nH]c(-c3ccc(F)cc3)nc2-c2ccncc2)cc1F` [Compound 131, 3-fluoro-5-(2-(4-fluorophenyl)-4-(pyridin-4-yl)-1H-imidazol-5-yl)pyridin-2-amine], the IC50 amounted to 0.174 µM. The result for `COc1cc(-c2[nH]c(-c3cccc(S(N)(=O)=O)c3)nc2-c2ccncc2)cnc1N` [Compound 132, 3-(5-(6-amino-5-methoxypyridin-3-yl)-4-(pyridin-4-yl)-1H-imidazol-2-yl)benzenesulfonamide] reads 0.001 µM; that for `COc1ccc(Cl)cc1-c1nc(-c2ccncc2)c(-c2cnc(N)c(OC)c2)[nH]1` [Compound 133, 5-(2-(5-chloro-2-methoxyphenyl)-4-(pyridin-4-yl)-1H-imidazol-5-yl)-3-methoxypyridin-2-amine], 0.0005 µM; that for `COc1cc(-c2[nH]c(-c3ccc(F)cc3)nc2-c2ccoc2)cnc1N` [Compound 134, 5-(2-(4-fluorophenyl)-4-(furan-3-yl)-1H-imidazol-5-yl)-3-methoxypyridin-2-amine], 0.0014 µM. Consider `COc1cc(-c2[nH]c(-c3ccccc3Cl)nc2-c2ccncc2)cnc1N` [Compound 135, 5-(2-(2-chlorophenyl)-4-(pyridin-4-yl)-1H-imidazol-5-yl)-3-methoxypyridin-2-amine], for which the IC50 turned out to be 0.0004 µM. For the compound `COc1cc(-c2[nH]c(-c3ccccc3C(F)(F)F)nc2-c2ccncc2)cnc1N` [Compound 136, 3-methoxy-5-(4-(pyridin-4-yl)-2-(2-(trifluoromethyl)phenyl)-1H-imidazol-5-yl)pyridin-2-amine], the IC50 is 0.0028 µM.

Take `COc1cc(-c2[nH]c(-c3ccccc3F)nc2-c2ccncc2)cnc1N` [Compound 137, 5-(2-(2-fluorophenyl)-4-(pyridin-4-yl)-1H-imidazol-5-yl)-3-methoxypyridin-2-amine]: the IC50 was determined as 0.0017 µM. With `COc1cc(-c2[nH]c(-c3ccccc3C)nc2-c2ccncc2)cnc1N` [Compound 138, 3-methoxy-5-(4-(pyridin-4-yl)-2-o-tolyl-1H-imidazol-5-yl)pyridin-2-amine], the IC50 came out at 0.0012 µM. The value for `COc1cc(-c2[nH]c(-c3cc(C)ccc3F)nc2-c2ccncc2)cnc1N` [Compound 139, 5-(2-(2-fluoro-5-methylphenyl)-4-(pyridin-4-yl)-1H-imidazol-5-yl)-3-methoxypyridin-2-amine] was 0.0012 µM.

In the case of `COc1cc(-c2nc(C(C)C)[nH]c2-c2ccncc2)cnc1N` [Compound 140, 5-(2-isopropyl-5-(pyridin-4-yl)-1H-imidazol-4-yl)-3-methoxypyridin-2-amine], the IC50 was determined as 0.0016 µM. With `Fc1ccc(-c2nc(-c3ccncc3)c(-c3ccc4nccn4c3)[nH]2)cc1` [Compound 141, 6-(2-(4-fluorophenyl)-4-(pyridin-4-yl)-1H-imidazol-5-yl)imidazo[1,2-a]pyridine], the IC50 was determined as 0.618 µM. The value for `Fc1ccc(-c2nc(-c3ccncc3)c(-c3cnc4c(c3)OCCN4)[nH]2)cc1` [Compound 142, 7-(2-(4-fluorophenyl)-4-(pyridin-4-yl)-1H-imidazol-5-yl)-3,4-dihydro-2H-pyrido[3,2-v][1,4]oxazine] was 0.382 µM; that for `Nc1ncc(-c2[nH]c(-c3ccccc3)nc2-c2ccncc2)cc1O` [Compound 143, 2-amino-5-(2-phenyl-4-(pyridin-4-yl)-1H-imidazol-5-yl)pyridin-3-ol] was 0.215 µM. Take `Fc1ccc(-c2nc(-c3ccncc3)c(-c3cnc4[nH]ccc4c3)[nH]2)cc1` [Compound 144, 5-(2-(4-fluorophenyl)-4-(pyridin-4-yl)-1H-imidazol-5-yl)-1H-pyrrolo[2,3-b]pyridine]: the IC50 came to 0.003 µM. For the compound `COc1cc(-c2[nH]c(-c3ccc(C)cc3F)nc2-c2ccncc2)cnc1N` [Compound 145, 5-(2-(2-fluoro-4-methylphenyl)-4-(pyridin-4-yl)-1H-imidazol-5-yl)-3-methoxypyridin-2-amine], the IC50 was determined as 0.0009 µM. For `COc1cc(-c2[nH]c(-c3ccc(Cl)cc3F)nc2-c2ccncc2)cnc1N` [Compound 146, 5-(2-(4-chloro-2-fluorophenyl)-4-(pyridin-4-yl)-1H-imidazol-5-yl)-3-methoxypyridin-2-amine], the IC50 is 0.0023 µM. The result for `COc1cc(-c2[nH]c(-c3ccc(F)cc3C)nc2-c2ccncc2)cnc1N` [Compound 147, 5-(2-(4-fluoro-2-methylphenyl)-4-(pyridin-4-yl)-1H-imidazol-5-yl)-3-methoxypyridin-2-amine] reads 0.0016 µM. The value for `COc1cc(-c2[nH]c(-c3ccc(F)c(C=O)c3)nc2-c2ccncc2)cnc1N` [Compound 148, 5-(5-(6-amino-5-methoxypyridin-3-yl)-4-(pyridin-4-yl)-1H-imidazol-2-yl)-2-fluorobenzaldehyde] was 0.0015 µM; that for `COc1cc(-c2[nH]c(-c3ccc(F)c(C)c3)nc2-c2ccncc2)cnc1N` [Compound 149, 5-(2-(4-fluoro-3-methylphenyl)-4-(pyridin-4-yl)-1H-imidazol-5-yl)-3-methoxypyridin-2-amine] was 0.0006 µM.

`Fc1ccc(-c2nc(-c3ccncc3)c(-c3ccnc4[nH]ccc34)[nH]2)cc1` [Compound 150, 4-(2-(4-fluorophenyl)-4-(pyridin-4-yl)-1H-imidazol-5-yl)-1H-pyrrolo[2,3-b]pyridine]: the IC50 was determined as 0.775 µM. The value for `Fc1ccc(-c2nc(-c3ccncc3)c(-c3cnc4[nH]cc(Br)c4c3)[nH]2)cc1` [Compound 151, 3-bromo-5-(2-(4-fluorophenyl)-4-(pyridin-4-yl)-1H-imidazol-5-yl)-1H-pyrrolo[2,3-b]pyridine] was 0.0007 µM; that for `Cc1cc(-c2[nH]c(-c3ccc(F)cc3)nc2-c2ccncc2)cnc1N` [Compound 152, 5-(2-(4-fluorophenyl)-4-(pyridin-4-yl)-1H-imidazol-5-yl)-3-methylpyridin-2-amine] was 0.0658 µM; that for `COc1cccc(Nc2nccc(-c3[nH]c(-c4ccc(F)cc4)nc3-c3cnc(N)c(OC)c3)n2)c1` [Compound 153, 4-(4-(6-amino-5-methoxypyridin-3-yl)-2-(4-fluorophenyl)-1H-imidazol-5-yl)-N-(3-methoxyphenyl)pyrimidin-2-amine] was 0.0002 µM. The value for `COc1cc(-c2nc(C3=CCOCC3)[nH]c2-c2ccncc2)cnc1N` [Compound 154, 5-(2-(3,6-dihydro-2H-pyran-4-yl)-5-(pyridin-4-yl)-1H-imidazol-4-yl)-3-methoxypyridin-2-amine] was 0.0033 µM. Turning to `COc1cc(-c2nc(C3=CCNCC3)[nH]c2-c2ccncc2)cnc1N` [Compound 155, 3-methoxy-5-(5-(pyridin-4-yl)-2-(1,2,3,6-tetrahydropyridin-4-yl)-1H-imidazol-4-yl)pyridin-2-amine], the IC50 was determined as 0.0162 µM. The value for `COc1cc(-c2nc(C3(O)CCN(C)CC3)[nH]c2-c2ccncc2)cnc1N` [Compound 156, 4-(4-(6-amino-5-methoxypyridin-3-yl)-5-(pyridin-4-yl)-1H-imidazol-2-yl)-1-methylpiperidin-4-ol] was 0.0093 µM; that for `CN(C)c1cncc(-c2[nH]c(-c3ccc(F)cc3)nc2-c2ccncc2)c1` [Compound 157, 5-(2-(4-fluorophenyl)-4-(pyridin-4-yl)-1H-imidazol-5-yl)-N,N-dimethylpyridin-3-amine] was 0.017 µM; that for `COc1cc(-c2nc(-c3ccc(F)cc3)[nH]c2-c2ccnc(NC(C)C)n2)cnc1N` [Compound 158, 4-(4-(6-amino-5-methoxypyridin-3-yl)-2-(4-fluorophenyl)-1H-imidazol-5-yl)-N-isopropylpyrimidin-2-amine] was 0.0051 µM.

Regarding `COc1cc(-c2nc(-c3ccc(F)cc3)[nH]c2-c2ccnc(NCC(C)C)n2)cnc1N` [Compound 159, 4-(4-(6-amino-5-methoxypyridin-3-yl)-2-(4-fluorophenyl)-1H-imidazol-5-yl)-N-isobutylpyrimidin-2-amine], the IC50 was determined as 0.0015 µM. Take `COCC(=O)NCCNc1nccc(-c2nc(-c3ccc(F)cc3)[nH]c2-c2cnc3[nH]cc(Cl)c3c2)n1` [Compound 160, N-(2-(4-(5-(3-chloro-1H-pyrrolo[2,3-b]pyridin-5-yl)-2-(4-fluorophenyl)-1H-imidazol-4-yl)pyrimidin-2-ylamino)ethyl)-2-methoxyacetamide]: the IC50 was determined as 0.0003 µM.

Consider `COCCNc1nccc(-c2nc(-c3ccc(F)cc3)[nH]c2-c2cnc(N)c(OC)c2)n1` [Compound 161, 4-(5-(6-amino-5-methoxypyridin-3-yl)-2-(4-fluorophenyl)-1H-imidazol-4-yl)-N-(2-methoxyethyl)pyrimidin-2-amine], for which the IC50 came to 0.0022 µM. The result for `COc1cc(-c2nc(C3CCOCC3)[nH]c2-c2ccncc2)cnc1N` [Compound 162, 3-methoxy-5-(5-(pyridin-4-yl)-2-(tetrahydro-2H-pyran-4-yl)-1H-imidazol-4-yl)pyridin-2-amine] reads 0.0055 µM; that for `COc1cc(-c2[nH]c(-c3ccc(F)cc3)nc2-c2ccnc(NC3CCCC3)n2)cnc1N` [Compound 164, 4-(5-(6-amino-5-methoxypyridin-3-yl)-2-(4-fluorophenyl)-1H-imidazol-4-yl)-N-cyclopentylpyrimidin-2-amine], 0.0163 µM; that for `COc1cc(-c2[nH]c(-c3ccc(F)cc3)nc2-c2ccnc(NC3CCCCC3)n2)cnc1N` [Compound 165, 4-(5-(6-amino-5-methoxypyridin-3-yl)-2-(4-fluorophenyl)-1H-imidazol-4-yl)-N-cyclohexylpyrimidin-2-amine], 0.0483 µM.
